Each structure is given as a SMILES string. “Also recorded” adds a separate entry of the source.

The subject of assay [1] is NOD mice. In words: Autoimmune diabetes in NOD mice. In kind it is in vivo, mouse. The procedure: NOD mice spontaneously develop diabetes mellitus similar to type I diabetes in humans. […] The mice were followed for the development of diabetes, marked by blood sugar above 300 mg/dl on 2 measurements.
The test system of assay [2] is human CD3 T cells. The experiment in a line: Pen 9 western blot of antibiotic-treated human T cells. In kind it is cell-based. The settings on record: human T cells activated by mitogen in presence of the antibiotic. In general terms: A western blot detects proteins with antibodies after separation by electrophoresis.
The test system of assay [3] is CD4+ human T cells. The experiment in a line: Real-time PCR verification of six genes. As to conditions: same RNA as gene array; cefuroxime 50 μg/ml. In kind it is cell-based. The procedure: To verify the results of the gene array, we synthesized real-time PCR primers (designed with the LightCycler probe design software (Roche)). Real-time PCR of 6 selected genes was performed using a LightCycler (Roche, Basel, Switzerland). RNA was reverse transcribed to cDNA from 1 μg of total RNA, which was then subjected to quantitative RT-PCR performed essentially according to the manufacturer's instructions. Specific primer pairs were used to amplify specific genes in the presence of 3 mM MgCl2. PCR was performed in triplicate in a total volume of 20 μl of LightCycler HotStart DNA SYBR Green I mix (Roche) containing primer and 5 μl of cDNA. […] Denaturation was performed for 15 s at 95° C., annealing was performed in 60° C., and the extension was performed at 72° C. for 20 s, with fluorescence detection at 72° C. after each cycle. After the final cycle, melting point analyses of all samples were performed within the range of 62-95° C. with continuous fluorescence detection. […]
The Human Autoimmune and Inflammatory Response Gene Array (SuperArray Bioscience corporation, Frederick, Md., USA) was used for analysis of gene expression by the T cells. […] To verify the results detected by the gene array study, a panel of six genes was designed and tested by real-time PCR: CCR4, ACVR2, JAK1, STAT4, TLR2 and NFKBIE. […]
(In general: Real-time PCR tracks product formation cycle by cycle.)

Assay [4] concerns experimental autoimmune encephalomyelitis (EAE) in rats. The experiment in a line: Actively induced EAE. In kind it is in vivo, rat. The settings on record: oral in drinking water from day 7 postinduction, daily dose 50 mg/kg, versus two control groups.
Assay [5] has as its system Adjuvant Arthritis (AA) in rats. In words: Adjuvant arthritis (AA). In kind it is in vivo, rat. The settings on record: IP 5 mg (25 mg/kg) once every 2 or 3 days from day 12, versus non-injected control. As to the method: Heat-killed Mycobacterium tuberculosis (Mt) strain H37Ra (Difco) was finely ground using a pestle and mortar, and was suspended to a final concentration of 10 mg/ml in IFA. Test rats were injected at the base of the tail with a total of 100 μl of the Mt suspension. The day of AA induction was designated as day 0. Disease severity was assessed by direct observation of all four limbs in each animal. A relative score between 0 and 4 was assigned to each limb based on the degree of joint inflammation, redness, and deformity; thus, the maximum possible score for an individual animal was 16. The results are presented as the mean±SE of total score.
To test the effects of antibiotics in vivo, active experimental autoimmune encephalomyelitis (EAE) was induced in rats as described above, and the injected rats (4 per group) were treated with oral cefuroxime axetil in the drinking water from day 7 postinduction (“Oral T Cefurox.”). One 500 mg tablet was dissolved in 500 ml of drinking water. The daily dose was 50 mg/kg, in the range of therapeutic pediatric human doses. As a control, the intravenous cefuroxime sodium preparation, which is not absorbed into the circulation, was administered orally (“Oral inj. Cefurox.”). A second control group was given water without antibiotics (“Control”). […]

With `CC1(C)S[C@@H]2[C@H](NC(=O)[C@H](N)c3ccccc3)C(=O)N2[C@H]1C(=O)O` [ampicillin], the “effect on type I diabetes” value in assay [1] (NOD mice) is given as “Inhibition of type I diabetes in NOD mice”. The molecule also returned an incidence of diabetes in assay [1] (NOD mice at 5.7 months, SC weekly, ampicillin 1300 μg, ceftriaxone 675 μg per mouse) of 30%. For the same molecule, the “reactivity of Pen 9 antibody with lysates of treated T cells” value in assay [2] was “did not bind”.
Take `CO/N=C(\C(=O)N[C@@H]1C(=O)N2C(C(=O)O)=C(COC(N)=O)CS[C@H]12)c1ccco1` [cefuroxime]: the “expression of CCR4, ACVR2, JAK1, STAT4, TLR2 and NFKBIE by real-time PCR” value in assay [3] was “suppressed”. Besides, the “severity of actively induced EAE” value in assay [4] is “increases the severity of actively induced EAE”. For the same molecule, the arthritis scores entry in assay [5] was “significantly more severe arthritis scores; also recorded: Exacerbation of adjuvant-induced arthritis”.

These data come from patent US9345691B2, “Beta-lactam compounds for enhancing T cell-mediated immune responses” (STEM CELL MEDICINE LTD., priority 2011, dated 2016).
